# US20260062407A1, “PEROXIREDOXIN 3 INHIBITORS AND METHODS OF USE FOR TREATING CANCER” (WAKE FOREST UNIVERSITY HEALTH SCIENCES, priority 2022, published 2026)
# pEC50: −log10 of the molar value.
# How the values were obtained:
# Solubility Assay (HPLC) = format: physicochemical; settings: 20 mM HEPES, 100 mM NaCl, pH 7.5, 18-24 hours at ambient temperature
# Description: A 20 mM stock solution was made for each compound in DMSO. To measure solubility, 0.03-0.05 mL of the stock was added to 0.27 mL 20 mM HEPES, 100 mM NaCl, pH 7.5. The solution was mixed and rotated 18-24 hours at ambient temperature. The next day, solutions were centrifuged for 10 min at 20,000×g at 24° C. to remove insoluble, solid material. Next, 100 μL of the supernatant containing the soluble compound was added to 900 μL DMSO and High Performance Liquid Chromatography was performed as described in Table 1 and either HPLC gradient 1 (Table 2) or HPLC gradient 2 (Table 3). For each analog, a 200 μM standard and a 20 μM standard were prepared and run in parallel (standards were dissolved completely in 100% DMSO). The amount of compound in the experimental sample was calculated by comparing the area under the curve for compound peak to the area for the closest standard and correcting for dilution.
# [1] = test system: SK-OV-3 ovarian cancer cells; test: Cellular Activity Assay (cytotoxicity, crystal violet); format: cell-based; settings: Homo sapiens; SK-OV-3 cells, 48 hr treatment, 0.1-100 μM, crystal violet absorbance at 540 nm
# Text: To test the activity of compounds, two complimentary assays were used as described below. The Biochemical PRX3 Inhibition Assay tests the ability of each compound to crosslink PRX3 in a simple, in vitro system. In the Cellular Activity Assay, we are testing the ability of compounds to kill SK-OV-3 ovarian cancer cells.
# The Cellular Activity Assay measures the EC50 of each compound in human SK-OV-3 ovarian cancer cells TS to be taken into the cell, transported to the mitochondria, and crosslink PRX3.
# The cytotoxicity of compounds was measured as described in Nelson et al. (2021) Antioxidants (Basel) 10, 150; Cunniff et al. (2015) PloS one 10, e0127310; and Newick et al. (2012)PloS one 7, e39404. SK-OV-3 is an adherent, epithelial, adenocarcinoma cell line obtained from ATCC (ref #: HTB-77). SK-OV-3 cells are resistant to the commonly used chemotherapeutics, cis-platinum and doxorubicin. For this PRX3 crosslinking assay, SK-OV-3 cells were plated in a 96-well plate. After 24 h recovery, the cells were treated for 48 hr with multiple concentrations of each compound ranging from 0.1-100 μM.
# Cells were washed with PBS to remove dead cells and the remaining live cells were fixed with 3.0% formaldehyde and stained with 0.1% crystal violet. The amount of crystal violet was determined by reading the absorbance at 540 nm (crystal violet dye dissolved in 100% methanol) using a plate reader. […]
# [2] = test system: Enterococcus hirae (ATCC #10541); test: Antimicrobial Activity Assay (MIC); format: cell-based
# Description: The overnight growth was then diluted into growth media to make a single solution of E. hirae with a final optical density at 600 nm=0.02 AU. A 20 mM stock solution of Thiostrepton in DMSO was made and used to make multiple dilutions of TS in DMSO. Each TS dilution (0.1 mL) was then added to a test tube containing 10 mL of the diluted E. hirae and grown at 37° C. overnight while shaking at 180 rpm. The next morning, each tube was visually inspected to determine if the cells grew. Final concentrations tested were 0.120, 0.090, 0.075, 0.060, 0.045, 0.030, and 0.015 μM TS. […] Three replicates were made on three separate days (n=9). […] For TS analogs, the dilute E. hirae was treated with 20 μM final concentration of each analog (three replicates each). […] DMSO was used as a positive control (complete cell growth) and 20 μM thiostrepton was used as a negative control.
# 578 cancer cells lines = settings: of 578 cancer cell lines tested; cited from earlier work
smiles,measurement,setting,value
"C=C(NC(=O)c1csc(N2CCC(NC(=O)CC3CCOCC3)CC2)n1)C(=O)NC(=C)C(=O)OC [Compound 51, Methyl 2-(2-(2-(4-(2-(tetrahydro-2H-pyran-4-yl)acetamido)piperidin-1-yl)thiazole-4-carboxamido)acrylamido)acrylate]",Solubility,Solubility Assay (HPLC),+ (<0.1 mM)
same,pEC50,[1],4.60 to 5.00
"C=C(NC(=O)C(=C)NC(=O)c1csc(C2=N[C@@H]3c4csc(n4)[C@H]4NC(=O)c5csc(n5)[C@H]([C@](C)(O)[C@@H](C)O)NC(=O)[C@H]5CSC(=N5)/C(=C/C)NC(=O)[C@H]([C@@H](C)O)NC(=O)c5csc(n5)[C@]3(CC2)NC(=O)[C@H](C)NC(=O)C(=C)NC(=O)[C@H](C)NC(=O)[C@H]([C@@H](C)CC)N[C@@H]2C=Cc3c([C@H](C)O)cc(nc3[C@H]2O)C(=O)O[C@@H]4C)n1)C(N)=O [TS, Thiostrepton]",TS concentrations at which complete growth was observed,"[2]; E. hirae, overnight at 37° C., n=9",≤ 0.030 µM
same,MIC,"[2]; Enterococcus hirae, ATCC10541, read-out: TS concentrations at which no growth was observed (MIC)",≥ 0.045 µM
"C=C(NC(=O)C(=C)NC(=O)c1csc(C2=N[C@@H]3c4csc(n4)[C@H]4NC(=O)c5csc(n5)[C@H]([C@](C)(O)[C@@H](C)O)NC(=O)[C@H]5CSC(=N5)/C(=C/C)NC(=O)[C@H]([C@@H](C)O)NC(=O)c5csc(n5)[C@]3(CC2)NC(=O)[C@H](C)NC(=O)C(=C)NC(=O)[C@H](C)NC(=O)[C@H]([C@@H](C)CC)N[C@@H]2C=Cc3c([C@H](C)O)cc(nc3[C@H]2O)C(=O)O[C@@H]4C)n1)C(N)=O [Thiostrepton (TS), Thiostrepton]",number of tumor cell lines with meaningful efficacy,578 cancer cells lines,403
